Drawing on ChEMBL document CHEMBL1122332, “Synthesis of esters of phosphonoformic acid and their antiherpes activity” (J Med Chem, 1983), this text covers Effect for 57 compounds.

Activity calls are given as the source filed them. The calls are words filed in the database; no cut-off is given here.

The first test has as its system Human alphaherpesvirus 1. The test is described as follows: Evaluated for antiviral activity against cutaneous HSV-1 C42 infections in guinea pig; Active. The class given is functional, organism-based.
As for `Cc1cccc(C)c1OP(=O)(O)C(=O)O`, the Effect result is “Active”.

Turning to `COc1ccc(OP(=O)(O)C(=O)O)cc1`, the Effect entry is “Active”.

For `COP(=O)(O)C(=O)Oc1ccccc1`, the Effect result was “Active”.

Turning to `O=C(O)P(=O)(O)Oc1ccc2c(c1)CCC2`, the Effect entry was “Active”.

As to `O=C(Oc1ccccc1)P(=O)(Oc1ccccc1)Oc1ccccc1`, the Effect entry was “Active”.

As to `CCOP(=O)(O)C(=O)Oc1ccc(Cl)cc1`, the Effect result was “Active”.

In the case of `CCOC(=O)c1ccc(OC(=O)P(=O)(O)O)cc1`, the Effect result is “Active”.

Turning to `O=C(Oc1ccccc1)P(=O)(O)Oc1ccccc1`, the Effect entry was “Active”.

In the case of `O=C(O)P(=O)(O)OC12CC3CC(CC(C3)C1)C2`, the Effect result was “Active”.

Turning to `O=C(O)P(=O)(O)Oc1ccccc1`, the Effect entry was “Active”.

For `CCOP(=O)(Oc1ccc(Cl)cc1)C(=O)Oc1ccccc1` (configuration not stated), the Effect entry was “Active”.

In the case of `Cc1ccc(OP(=O)(O)C(=O)Oc2ccccc2)cc1`, the Effect entry was “Active”.

With `O=C(O)P(=O)(O)O`, the Effect entry was “Active”.

For `CCOP(=O)(O)C(=O)Oc1ccc(OC)cc1`, the Effect entry is “Active”.

For `O=C(Oc1ccc(Cl)cc1)P(=O)(O)O`, the Effect entry was “Active”.

With `O=C(Oc1ccc(Cl)c(Cl)c1)P(=O)(O)O`, the Effect entry is “Active”.

`COc1ccc(OC(=O)P(=O)(O)O)cc1`: the Effect entry is “Active”.

Turning to `Cc1ccc(OP(=O)(Oc2ccc(C)cc2)C(=O)Oc2ccccc2)cc1`, the Effect result is “Active”.

For `COP(=O)(O)C(=O)O`, the Effect entry was “Active”.

Consider `Cc1ccc(OP(=O)(O)C(=O)O)cc1`, for which the Effect result was “Active”.

For the compound `CCOP(=O)(Oc1ccc(OC)cc1)C(=O)Oc1ccccc1` (configuration not stated), the Effect result is “Active”.

With `CCOP(=O)(O)C(=O)O`, the Effect entry is “Active”.

Regarding `Cc1ccc(OC(=O)P(=O)(O)O)cc1`, the Effect result was “Active”.

`O=C(Oc1ccccc1)P(=O)(O)O`: the Effect entry was “Active”.

Another test has as its system Human alphaherpesvirus 1. The test is described as follows: Evaluated for antiviral activity against cutaneous HSV-1 C42 infections in guinea pig; Not active. The class given is functional, organism-based.
For the compound `CCCCOC(=O)P(=O)(O)O`, the Effect result was “inactive”.

For the compound `COP(=O)(OC)C(=O)OCc1ccccc1`, the Effect result was “inactive”.

Turning to `COC(=O)P(=O)(OC)Oc1ccc(C(C)=O)cc1` (configuration not stated), the Effect entry is “inactive”.

Take `CCCCOP(=O)(OCCCC)C(=O)OC`: the Effect entry is “inactive”.

For the compound `COP(=O)(OC)C(=O)OCC1CCCC1`, the Effect entry is “inactive”.

Take `CC(C)OC(=O)P(=O)(O)O`: the Effect entry is “inactive”.

Turning to `O=C(OCC1CCCC1)P(=O)(O)O`, the Effect result is “inactive”.

Turning to `COC(=O)P(=O)(OC(C)C)OC(C)C`, the Effect result is “inactive”.

In the case of `CCOP(=O)(OCC)C(=O)Oc1ccc(Cl)cc1`, the Effect result was “inactive”.

Take `COC(=O)P(=O)(O)Oc1c(C)cccc1C`: the Effect result was “inactive”.

For `CCOP(=O)(Oc1ccc(C(C)=O)cc1)C(=O)OC` (configuration not stated), the Effect entry was “inactive”.

On to `CCOC(=O)P(=O)(O)O`, for which the Effect entry was “inactive”.

Consider `CCOP(=O)(OCC)C(=O)Oc1ccc(OC)cc1`, for which the Effect result is “inactive”.

Regarding `CCOC(=O)P(=O)(O)OCC`, the Effect entry was “inactive”.

For `COP(=O)(O)C(=O)OCc1ccccc1`, the Effect entry was “inactive”.

Regarding `COP(=O)(OC)C(=O)OC1CCCCC1`, the Effect entry was “inactive”.

In the case of `COP(=O)(OC)C(=O)Oc1ccccc1`, the Effect result is “inactive”.

As to `CC(C)OP(=O)(OC(C)C)C(=O)Oc1ccc([N+](=O)[O-])cc1`, the Effect entry is “inactive”.

For `CCOC(=O)c1ccc(OC(=O)P(=O)(OC)OC)cc1`, the Effect result was “inactive”.

For `CCOC(=O)c1ccc(OC(=O)P(=O)(OCC)OCC)cc1`, the Effect result is “inactive”.

As to `COP(=O)(OC)C(=O)Oc1ccc(Cl)c(Cl)c1`, the Effect result is “inactive”.

With `CCCCOC(=O)P(=O)(OC)OC`, the Effect result is “inactive”.

As for `COP(=O)(OC)C(=O)Oc1ccc([N+](=O)[O-])cc1`, the Effect result was “inactive”.

As for `CCCCOP(=O)(O)C(=O)OC`, the Effect result is “inactive”.

As for `O=C(OCc1ccccc1)P(=O)(O)O`, the Effect entry is “inactive”.

As for `COC(=O)P(=O)(OC)OC12CC3CC(CC(C3)C1)C2` (configuration not stated), the Effect result was “inactive”.

Take `COP(=O)(OC)C(=O)Oc1ccc(C)cc1`: the Effect result is “inactive”.

In the case of `COC(=O)P(=O)(O)Oc1ccc2c(c1)CCC2`, the Effect entry was “inactive”.

Regarding `CCOP(=O)(Oc1ccc2c(c1)CCC2)C(=O)OC` (configuration not stated), the Effect entry was “inactive”.

`CCOP(=O)(Oc1c(C)cccc1C)C(=O)OC` (configuration not stated): the Effect entry is “inactive”.

With `COP(=O)(OC)C(=O)OC(C)C`, the Effect entry was “inactive”.

As for `O=C(OC1CCCCC1)P(=O)(O)O`, the Effect entry is “inactive”.

With `CCOC(=O)P(=O)(O)Oc1ccccc1`, the Effect result is “inactive”.
